Source: patent publication US7524880B2, “Crystalline form of a substituted pyrrolidine compound” (Theravance, Inc., priority 2004, dated 2009)

Key:
[1] = target: T1, M3 muscarinic receptor subtype (hM3) (Homo sapiens, UniProt P20309); experiment: Radioligand binding assay ([3H]-NMS displacement, CHO cell membranes); settings: [3H]-NMS 1 nM, 60 minutes at 37° C.
T1 construct: expressed in transfected cells
Method: A. Membrane Preparation from Cells Expressing hM1, hM2, hM3 and hM4 Muscarinic Receptor Subtypes
CHO cell lines stably expressing cloned human hM1, hM2, hM3 and hM4 muscarinic receptor subtypes, respectively, were grown to near confluency in medium consisting of HAM's F-12 supplemented with 10% FBS and 250 μg/mL Geneticin. The cells were grown in a 5% CO2, 37° C. incubator and lifted with 2 mM EDTA in dPBS. Cells were collected by 5 minute centrifugation at 650×g, and cell pellets were either stored frozen at −80° C. or membranes were prepared immediately. For membrane preparation, cell pellets were resuspended in lysis buffer and homogenized with a Polytron PT-2100 tissue disrupter (Kinematica AG; 20 seconds×2 bursts). […] The protein concentration of the membrane suspension was determined by the method described in Lowry, O. et al., […] 193:265 (1951). […]
Radioligand binding assays were performed in 96-well microtiter plates in a total assay volume of 100 μL. […] Filter plates were rinsed three times with wash buffer (10 mM HEPES) to remove unbound radioactivity. […] The plates were then counted in a PerkinElmer Topcount liquid scintillation counter (PerkinElmer Inc., Wellesley, Mass.). Binding data were analyzed by nonlinear regression analysis with the GraphPad Prism Software package (GraphPad Software, Inc., San Diego, Calif.) using the one-site competition model. […]

[2] = target: T2, hM3 receptor (Homo sapiens, UniProt P20309); experiment: Blockade of agonist-mediated calcium release via FLIPR; type: cell-based; settings: CHO cells stably expressing the hM3 receptor, oxotremorine EC90
T2 construct: expressed in transfected cells
From the text: C. Blockade of Agonist-Mediated Calcium Release Via FLIPR Assays
Muscarinic receptor subtypes (M1, M3 and M5 receptors), which couple to Gq proteins, activate the phospholipase C (PLC) pathway upon agonist binding to the receptor. As a result, activated PLC hydrolyzes phosphatyl inositol diphosphate (PIP2) to diacylglycerol (DAG) and phosphatidyl-1,4,5-triphosphate (IP3), which in turn generates calcium release from intracellular stores, i.e., endoplasmic and sarcoplasmic reticulum. […] This fluorescence event is measured in real time by the FLIPR, which detects the change in fluorescence from a monolayer of cells cloned with human M1 and M3, and chimpanzee M5 receptors. Antagonist potency is determined by the ability of antagonists to inhibit agonist-mediated increases in intracellular calcium. […]
To determine antagonist potency, the dose-dependent stimulation of intracellular Ca^2+ release for oxotremorine was first determined so that antagonist potency can later be measured against oxotremorine stimulation at an EC90 concentration. […]
The parameters used for the FLIPR were: exposure length of 0.4 seconds, laser strength of 0.5 watts, excitation wavelength of 488 nm, and emission wavelength of 550 nm. Baseline was determined by measuring the change in fluorescence for 10 seconds prior to addition of agonist. […]

T1 sequence (P20309 whole entry): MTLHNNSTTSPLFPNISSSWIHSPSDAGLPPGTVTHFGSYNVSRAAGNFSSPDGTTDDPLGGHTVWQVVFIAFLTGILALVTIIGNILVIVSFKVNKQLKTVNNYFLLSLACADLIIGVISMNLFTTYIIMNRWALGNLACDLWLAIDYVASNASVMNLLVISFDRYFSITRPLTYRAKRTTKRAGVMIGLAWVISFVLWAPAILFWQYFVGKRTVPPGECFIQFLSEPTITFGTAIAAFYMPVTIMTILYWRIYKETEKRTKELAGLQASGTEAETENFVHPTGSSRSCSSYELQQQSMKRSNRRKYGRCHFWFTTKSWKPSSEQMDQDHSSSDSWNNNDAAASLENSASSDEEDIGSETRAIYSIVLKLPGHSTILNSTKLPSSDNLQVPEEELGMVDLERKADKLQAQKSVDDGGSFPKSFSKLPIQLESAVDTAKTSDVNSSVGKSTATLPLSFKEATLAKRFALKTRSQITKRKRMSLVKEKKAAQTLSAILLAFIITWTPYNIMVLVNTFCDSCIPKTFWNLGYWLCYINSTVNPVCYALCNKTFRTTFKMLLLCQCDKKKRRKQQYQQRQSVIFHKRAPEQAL
T2 sequence (P20309 whole entry): as above

Ki [1]: ~0.96 nM
Ki [2]: < 5 nM
Compound: CNCCCCCCCCN1CC[C@@H](C(C(N)=O)(c2ccccc2)c2ccccc2)C1 [compound of formula I, 2-[(S)-1-(8-methylaminooctyl)pyrrolidin-3-yl]-2,2-diphenylacetamide]
